From the supplement of paper PMC10307832

Columns and labels:
Assay in all cases: relative viability (nuclei count vs DMSO), 5 days (fraction); higher = more cells survive
RU-SKI 43 + OSI-027 = compound: CC[C@@H](C)CNCC(=O)N1CCC2=C([C@@H]1COC3=CC=CC(=C3)C)C=CS2 [RU-SKI 43] + COc1cccc2cc(-c3nc([C@H]4CC[C@H](C(=O)O)CC4)n4ncnc(N)c34)[nH]c12 [OSI-027] (partner 0.5 µM)
In short: (§1)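 Relative viability equals treated-well nuclei counts divided by vehicle-well nuclei counts. Counts came from 4× images of lung cancer cell lines grown in 1536-well plates for 5 days after pin-tool dosing on the day after seeding. Dosing used one drug alone or a fixed anchor-drug dose plus five library-drug doses (not always all listed) in √10 steps, and values are medians of duplicate plates.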

MK-8033 + OSI-027 = compound: Cn1cc(-c2cnc3ccc4ccc(CS(=O)(=O)NCc5ccccn5)cc4c(=O)c3c2)cn1 [MK-8033] + COc1cccc2cc(-c3nc([C@H]4CC[C@H](C(=O)O)CC4)n4ncnc(N)c34)[nH]c12 [OSI-027] (partner 0.5 µM)
In short: as §1

MK-8033 + Phenformin = compound: Cn1cc(-c2cnc3ccc4ccc(CS(=O)(=O)NCc5ccccn5)cc4c(=O)c3c2)cn1 [MK-8033] + N=C(N)NC(=N)NCCc1ccccc1 [Phenformin] (partner 250 µM)
In short: as §1

Irinotecan + AZD7762 = compound: CCc1c2c(nc3ccc(OC(=O)N4CCC(N5CCCCC5)CC4)cc13)-c1cc3c(c(=O)n1C2)COC(=O)[C@]3(O)CC [Irinotecan] + NC(=O)Nc1cc(-c2cccc(F)c2)sc1C(=O)N[C@H]1CCCNC1 [AZD7762] (partner 0.2 µM)
In short: as §1

Cell Line	relative viability (RU-SKI 43 + OSI-027; first compound 0.1 µM)	relative viability (RU-SKI 43 + OSI-027; first compound 0.3162 µM)	relative viability (RU-SKI 43 + OSI-027; first compound 1 µM)	relative viability (RU-SKI 43 + OSI-027; first compound 3.162 µM)	relative viability (RU-SKI 43 + OSI-027; first compound 10 µM)	relative viability (MK-8033 + OSI-027; first compound 0.02 µM)	relative viability (MK-8033 + OSI-027; first compound 0.06325 µM)	relative viability (MK-8033 + OSI-027; first compound 0.2 µM)	relative viability (MK-8033 + OSI-027; first compound 0.6325 µM)	relative viability (MK-8033 + OSI-027; first compound 2 µM)	relative viability (MK-8033 + Phenformin; first compound 0.02 µM)	relative viability (MK-8033 + Phenformin; first compound 0.06325 µM)	relative viability (MK-8033 + Phenformin; first compound 0.2 µM)	relative viability (MK-8033 + Phenformin; first compound 0.6325 µM)	relative viability (MK-8033 + Phenformin; first compound 2 µM)	relative viability (Irinotecan + AZD7762; first compound 0.6325 µM)	relative viability (Irinotecan + AZD7762; first compound 2 µM)	relative viability (Irinotecan + AZD7762; first compound 6.325 µM)	relative viability (Irinotecan + AZD7762; first compound 20 µM)
A-427	0.471	0.345	0.546	0.507	0.43	0.539	0.463	0.431	0.527	0.4	0.308	0.371	0.289	0.325	0.374	0.712	0.642	0.315	0.18
LCLC-97TM1	0.486	0.551	0.627	0.496	0.485	0.519	0.456	0.431	0.592	0.568	0.393	0.433	0.456	0.454	0.439	0.0915	0.143	0.105	0.116
NCI-H3122	1.02	1.23	1.31	1.01	0.96	1.05	0.957	0.926	0.991	0.916	0.346	0.347	0.347	0.368	0.354	0.941	0.34	0.145	0.139
RERF-LC-KJ	0.505	0.514	0.603	0.56	0.548	0.554	0.535	0.531	0.521	0.509	0.406	0.368	0.431	0.434	0.364	0.55	1.03	0.568	0.277
NCI-H2170	0.709	0.745	0.761	0.809	0.667	0.682	0.639	0.7	0.732	0.707	0.447	0.424	0.374	0.407	0.399	0.649	0.562	0.173	0.133
ABC-1	0.541	0.385	0.554	0.52	0.473	0.417	0.339	0.415	0.457	0.506	0.202	0.219	0.227	0.281	0.211		0.718	0.308	0.422
HCC-44	0.511		0.777	0.479	0.611	0.472	0.508	0.465	0.605	0.522	0.209	0.181	0.22	0.252	0.208	0.909	1.03	0.798	0.486
HCC-15	0.733	0.805	0.75	0.803	0.625	0.692	0.588	0.64	0.648	0.656	0.511	0.467	0.421	0.45	0.482	1.09	1.08	0.609	0.22
NCI-H522	0.823	0.726	0.71	0.708	0.716	0.806	0.627	0.661	0.729	0.722	0.645	0.7	0.707	0.54	0.699	0.635	0.746	0.571	0.555
NCI-H1793	0.257	0.21	0.348	0.28	0.257	0.247	0.253	0.233	0.282	0.2	0.383	0.284	0.316	0.394	0.293		0.387	0.232	0.217
H3255	0.543	0.598	0.582	0.607	0.584	0.621	0.551	0.597	0.491	0.639	0.341	0.364	0.335	0.326	0.37	0.713	0.611	0.354	0.388
NCI-H1666	0.897	0.87	0.85	0.858	0.752	0.886	0.754	0.771	0.94	0.803	0.588	0.598	0.548	0.612	0.527	0.815	0.687	0.552	0.503
201T	0.834	0.709	1.06	0.69	0.458	0.767	0.703	0.683	0.675	0.817	0.499	0.448	0.39	0.436	0.469	0.456	0.416	0.345	0.266
LK-2	0.182	0.169	0.227	0.177	0.183	0.202	0.227	0.22	0.189	0.276	0.708		0.326	0.437	0.305	0.316	0.388	0.222	0.281
NCI-H1755	0.757	0.825	0.781	0.841	0.699	0.625	0.676	0.681	0.717	0.822	0.603	0.572	0.605	0.682	0.653	0.53	0.47	0.345	0.327
LOU-NH91	0.752	0.642	0.74	0.774	0.728	0.74	0.453	0.7	0.667	0.752	0.716	0.473	0.717	0.715	0.768	0.719	0.756	0.421	0.156
NCI-H1975	0.749	0.829	1.02	0.779	0.604	0.692	0.645	0.563		0.571	0.409	0.417	0.405		0.364	0.826	0.7	0.527	0.322
